Experimental data taken from patent US20020098520A1, “Cell tests and diagnostic index for alzheimer's disease” (priority 1993, published 2002).
Entries after “also recorded” stand apart in the source; their conditions may differ.

How the values were obtained:
166 pS K^+ channel = assay: Patch-clamp, cell-free patches: channel sensitivity to blockers; assay type: cell-based, human; conditions: 50 mM Ba^2+, inside-out patches, n=4
Protocol: (§1) Patch-clamp experiments were performed at room temperature (21-23° C.), following standard procedures set forth in Sakmann, B. and Neher, E. (1983) Single Channels Recordings (Plenum New York) and Kukuljan, M., et al. (1991) J. Membrane Biol. 119:187. Before recordings, […] culture medium was replaced with the following solution: 150 mM NaCl, 5 mM KCl, 2 mM CaCl2, 1 MM MgCl2, 10 mM HEPES […] pH=7.4. Pipettes were made from Blue Tip capillary tubes (I.D. 1.1-1.2 mm) using a BB-CH Mecanex puller, and then filled with a high potassium solution of 140 mM KCl, 2 mM CaCl2, 1 mM MgCl2, 10 mM HEPES (NaOH), pH=7.4. Pipette resistances were approximately 6 MΩ. Records were obtained using an Axopatch-1C amplifier (dc-10 kHz), stored on tape (Toshiba PCM-video recorder), and later transferred to a personal computer using an Axolab interface. Only recordings lasting for at least 3 minutes were considered for final analysis. The pClamp suite of programs was used for single-channel data acquisition and analysis. Amplifier, interface and software were obtained from Axon Instruments (Foster City, Calif.).

113 pS K^+ channel = assay: as above; assay type: cell-based, human; conditions: 50 mM Ba^2+, inside-out patches, n=4
Protocol: as §1

[1] = tested on: human skin fibroblasts (AD, AC, YC); assay type: cell-based
113 pS K+ channel = conditions: low β-amyloid concentration (10 nM), cited from earlier work
Cp20 = Cp20 immunoblot of AC fibroblasts treated with β-amyloid; assay type: cell-based, human; conditions: 10 nM β-amyloid for 48 h, 9 AC cell lines
Protocol: (§2) Cell lines and procedures for cell culture. Human skin fibroblasts were grown to confluence in 75 cc growing surface culture flasks (Falcon) containing Dulbecco's modified Eagle's medium (DMEM, Gibco), supplemented with 10% fetal calf serum (Gibco). […]
Protein assay, immunoblotting, and total protein analyses procedures. Protein concentration was determined following an established dye-binding protein assay (R. D. Lane et al. J. Immunol Methods 92:261 (1986) for all homogenates. For immunoblots, a SDS-PAGE 4-20% gradient, […] gel was used (Novex, San Diego, Calif.). Sample volume was adjusted to give a protein concentration of 1 μg/μl. Novex sample buffer (16 μl) was added to 16 μl of sample, the solution was heated to 85° C. for 2 min, loaded into the gel and subjected to […] for ≈1.5 h. The Rainbow™ molecular weight standard (Amersham) was also loaded. The resolved proteins were electrophoretically transferred (51.2 mA for 2 h) to a unmodified 8 by 8 cm nitrocellulose paper (Pierce). […]

[2] = tested on: proteins in the 20 kD region; assay: Total protein analysis (SDS-PAGE, Coomassie blue) of β-amyloid treated AC fibroblasts; assay type: cell-based, human; conditions: 10 nM β-amyloid for 48 h, AC cell lines
Protocol: as §2
Protein assay, immunoblotting, and total protein analyses procedures. Protein concentration was determined following an established dye-binding protein assay (R. D. Lane et al. J. Immunol Methods 92:261 (1986) for all homogenates. For immunoblots, a SDS-PAGE 4-20% gradient, […] gel was used (Novex, San Diego, Calif.). Sample volume was adjusted to give a protein concentration of 1 μg/μl. Novex sample buffer (16 μl) was added to 16 μl of sample, the solution was heated to 85° C. for 2 min, loaded into the gel and subjected to […] for ≈1.5 h. The Rainbow™ molecular weight standard (Amersham) was also loaded. The resolved proteins were electrophoretically transferred (51.2 mA for 2 h) to a unmodified 8 by 8 cm nitrocellulose paper (Pierce). […] Immunoblots were then digitized on a flat bed scanner and analyzed with imaging software written in the laboratory (TN Image by T. J. Nelson) for quantitative analysis. […] MW was determined by comparison with Mark12™ standards (Novex). […]

## [Ba+2] [Ba^2+]
166 pS K^+ channel
  sensitivity of the 166 pS channel to Ba^2+: sensitive
113 pS K^+ channel
  sensitivity of the 113 pS channel to Ba^2+: sensitive

## O=C(O)CN(CCOCCOCCN(CC(=O)O)CC(=O)O)CC(=O)O [EGTA]
[1]
  response to high potassium when agent is added before stimulation: No responses were observed

## β-amyloid 1-40 peptide
113 pS K+ channel; control cells
  effect on the 113 pS K+ channel / K+ function: specific AD-like effects; also recorded: induces an AD-like K+ dysfunction
113 pS K+ channel
  effect on basal levels of intracellular Ca^2+: without altering basal levels
Cp20
  Cp20 level in treated cells compared to non-treated counterparts: significantly reduced; also recorded: reduction of Cp20; also recorded: induced the Alzheimer's disease phenotypes for Cp20
[2]
  effect on total protein profile / proteins in the 20 kD region: not a generalized effect on all proteins in the 20 kD region; also recorded: revealed no differences

## [Cl][Cd][Cl] [CdCl2]
[1]
  response to high potassium when agent is added before stimulation: No responses were observed

## [Cl][Ni][Cl] [NiCl2]
[1]
  response to high potassium when agent is added before stimulation: No responses were observed

## [Cl-].[K+] [KCl, potassium chloride]
[1]; 50 mM KCl
  return of [Ca^2+]i to basal levels: 100 s
[1]; 50 mM KCl, all three groups (AD, AC, YC)
  [Ca^2+]i elevation: at least 100%

## [Cl][La]([Cl])[Cl] [LaCl3]
[1]
  response to high potassium when agent is added before stimulation: No responses were observed

## [Cl-].[Cl-].[Co+2] [CoCl2]
[1]
  response to high potassium when agent is added before stimulation: No responses were observed
